System: SREBP-1c promoter
Assay: SREBP-1c promoter dual luciferase reporter assay in HEK293T cells with RXRα/LXRα ligands
Format: cell-based, human
Conditions: ligand(s) in culture solution for 24 hours, firefly relative to Renilla luciferase
Source text: A genome DNA fragment coding the SREBP-1c promoter region (located in residues −410 to +24 base region) from mouse genome was amplified, and the resulting fragment was inserted into KpnI and HindIII sites in pGL3-Basic (manufactured by Promega Corporation), to give pGL3-SREBP-1cPro (FIG. 4a).
Human embryonic kidney cells (HEK293T: cell expressing endogenous […] ) were transformed with the control plasmid coding pGL3-srebp-1cPro and Renilla luciferase (manufactured by Promega Corporation) and together with any one plasmid of (i) vacant plasmid, (ii) plasmid coding the HCV core protein, (iii) plasmid coding RXRα and LXRα, and (iv) plasmid coding RXRα, LXRα and the HCV core protein. The transformant obtained was cultivated in a culture solution containing a RXRα's ligand 9-cis-retinoic acid (9cisRA; product of Sigma Corporation), a LXRα's ligand 22(R)-hydroxycholesterol (22(R)HC), or both of them as additives for 24 hours, and then, the cells were collected; the luciferase activity of the cells was determined, similarly to (1) above, by using the dual luciferase reporter assay system (manufactured by Promega Corporation).

Molecule	SREBP-1c promoter activity by the HCV core protein (luciferase activity)
9-cis-retinoic acid	increase in SREBP-1c promoter activity
CC(C)CC[C@@H](O)[C@@H](C)[C@H]1CC[C@H]2[C@@H]3CC=C4C[C@@H](O)CC[C@]4(C)[C@H]3CC[C@]12C [22(R)-hydroxycholesterol]	increase in SREBP-1c promoter activity

Reference: US8080370B2, “Screening method for prophylactic and/or therapeutic agent for disease accompanied by hepatitis C” (Osaka University, priority 2006, dated 2011)
